System: brown rats, Rattus norvegicus
Assay: Laboratory arena with two trap boxes: behavioral responses of rats (first entry, time spent)
Type: in vivo
Description: A laboratory experimental apparatus was constructed to test the behavioral responses of rats to the compositions described herein. The experimental design is depicted in FIG. 1 and includes a circular galvanized steel arena (200 cm×60 cm) illuminated from above by a 7.5-W red bulb (Halco Lighting Technologies, Norcross, Ga. 30071, USA) to facilitate observations of the position of the rat within the steel arena. Two metal trap boxes (3a, 3b) (each 25 cm×20 cm×12 cm; T. Eaton & Co. Inc., Twinsburg, Ohio 44087, USA) were placed in opposite quadrants of the arena (1) 10 cm from the wall to serve as harborage. Each box (3a, 3b) was fitted with a Petri dish (3 cm) containing a Whatman #1 filter paper disk (25 mm diam; Sigma-Aldrich Canada Co. Oakville, On L6H 6J8) treated with a randomly assigned treatment or control stimulus. Individual rats were released from a gated mesh and sheet metal box (2) (25 cm×15 cm×15 cm) positioned equidistant to each of the two metal trap boxes (3a, 3b).
For each experimental replicate, a single rat was removed from its “home” cage, and placed into the gated mesh- and sheet-metal container (2). After a 10-min acclimation period, the gate was raised, allowing the rat to leave the box (2) on its own accord and to explore the arena (1) and the trap boxes (3a, 3b).
A rat was classed a responder if it entered a trap box (3a, 3b). For each responding rat, two criteria were recorded and analyzed: 1) the trap box (3a, 3b) it entered first (“first entry”), and 2) the time it spent in the arena quadrants associated with a trap box (“time spent”). The latter data were obtained by recording the rat's position in any one of the four arena quadrants at each of 30 1-min intervals. Following each replicate, the arena and trap boxes were cleaned with a Percept™ disinfectant detergent (Virox Technologies Inc. Mississaugua ON L5N 5M4, Canada) and were wiped with a pet urine odor remover (Nature's Miracle®, Spectrum Brands Inc., Blacksburg, Va. 24060-6671, USA).
First-choice data and the time spent in a trap box quadrant were analyzed using a χ^2 test with Yates' correction for continuity (α=0.05) and the Student's t-test (α=0.05), respectively.
In Experiments 1 and 2, the laboratory experimental design of FIG. 1 was used to evaluate the responses of male and female rats to synthetic androstenone. For Experiments 1 and 2, the treatment stimulus consisted of filter paper sprayed with 2 ml of an aqueous microemulsion containing 4 μg of synthetic androstenone and a control stimulus which consisted of untreated filter paper. The treatment stimulus and control stimulus were placed in the trap boxes (3a, 3b). Experiment 1 tested the response of male rats and Experiment 2 tested the response of female rats.
In Experiments 3 and 4, the laboratory experimental design of FIG. 1 was used to evaluate the responses of male and female rats to synthetic progesterone and estrogen. For Experiments 3 and 4, the treatment stimulus consisted of filter paper impregnated with a 4-μg blend of the synthetic hormones progesterone and estrogen formulated in 50 μl of ether at a ratio of either 100:1 (Experiment 3) or 1000:1 (Experiment 4). The control stimulus in each of Experiments 3 and 4 consisted of filter paper impregnated with 50 μl of ether.
Experiment 14 used the laboratory experimental apparatus of FIG. 1 to test choices of female rats between a treatment stimulus consisting of filter paper treated with 150 ng of synthetic testosterone formulated in 50 μl of ether and a control stimulus consisting of filter paper treated with 50 μl of ether.

[1] = Experiment 1, male rats, 4 μg synthetic androstenone
[2] = Experiment 2, female rats, 4 μg synthetic androstenone
[3] = Experiment 14, female rats, 150 ng synthetic testosterone

SMILES	first entry into treatment trap box vs control trap box [1]	time spent in quadrants associated with stimulus vs opposite control quadrants [1]	attractive effect on male rats (Experiment 1, male rats, 4 μg synthetic androstenone on filter paper vs untreated filter paper)	first entry into treatment trap box vs control trap box [2]	time spent in quadrants associated with treatment stimulus vs opposite control quadrants [2]	attractive effect on female rats (Experiment 2, female rats, 4 μg synthetic androstenone on filter paper vs untreated filter paper)	first entry into baited trap box vs control trap box [3]	time spent in arena quadrant of baited trap box vs opposite control quadrant [3]	attractant effect on female rats (Experiment 14, female rats, 150 ng synthetic testosterone in 50 μl ether vs ether)
C[C@]12CCC(=O)C[C@@H]1CC[C@@H]1[C@@H]2CC[C@]2(C)C=CC[C@@H]12 [androstenone, 5α-androst-16-en-3-one]	as often as	significantly less time	no observed attractive effect	significantly more often	significantly more time	very attractive effect			
C[C@]12CC[C@H]3[C@@H](CCC4=CC(=O)CC[C@@]43C)[C@@H]1CC[C@@H]2O [testosterone, (8R,9S,10R,13S,14S,17S)-17-hydroxy-10,13-dimethyl-1,2,6,7,8,9,11,12,14,15,16,17-dodecahydrocyclopenta[a]phenanthren-3-one, reference compound]							significantly more often	significantly more time	very positive attractant effect

Source: patent publication US11185077B2, “Attractants for rodents” (priority 2016, dated 2021)
